Where two headings read alike, the source gives them in different places.
What was measured:
[1] = Stability testing as per ICH Guideline Q1A(R2), storage stability; assay type: physicochemical
Description: Stability testing was done as per ICH Harmonised Tripaertite Guideline Stability Testing of New drug substances and Products Q1A(R2) issued by International Conference on Hamonization of technical requirements for registration of pharmaceuticals for human use and recommended for adoption at Step 4 of the ICH Process on 6 Feb.
Details are given on table nos 1 to 4 given in the following: […]

[2] = Analysis against JECFA specifications: solubility; assay type: physicochemical; conditions: in ethyl acetate
[3] = Particle size analysis; conditions: for particle size distribution at 90%: 90% of particles below this size
Experimental: The TGS crystals obtained were tested for purity and particle size.
The solids obtained were tested for purity, particle size and X ray diffraction for the nature of solid obtained.

[4] = Accelerated stability test, sealed containers incubated at 50° C.; assay type: physicochemical; conditions: sealed container; for Assay (%) / PH: listed as Crystalline TGS crystallized from butanol:methanol mixture
Experimental: For extrapolating potential storage stability beyond one year, an accelerated storage stability test was conducted. In this test, crystalline TGS of small and large mean particle size was incubated at 50° C. in sealed containers. Percent assay and pH were tested after each 24 hours for five successive days. […] A three days' stability in accelerated stability test is extrapolated by Catani et al (2005) to 8 years of storage stability at ambient temperature.
All the three samples were taken in sealed containers and were incubated at 50° C. […]

[5] = 25° C. ± 2° C. 60% RH ± 5% RH, 1st month
[6] = 25° C. ± 2° C. 60% RH ± 5% RH, 2nd month
[7] = 25° C. ± 2° C. 60% RH ± 5% RH, 3rd month
[8] = 25° C. ± 2° C. 60% RH ± 5% RH, 4th month
[9] = 25° C. ± 2° C. 60% RH ± 5% RH, 5th month
[10] = 25° C. ± 2° C. 60% RH ± 5% RH, 6th month
[11] = 25° C. ± 2° C. 60% RH ± 5% RH, 12th month
[12] = 25° C. ± 2° C. 60% RH ± 5% RH, 24th month
[13] = 25° C. ± 2° C. 60% RH ± 5% RH, INITIAL
[14] = 30° C. ± 2° C. 65% RH ± 5% RH, 1st month
[15] = 30° C. ± 2° C. 65% RH ± 5% RH, 2nd month
[16] = 30° C. ± 2° C. 65% RH ± 5% RH, 3rd month
[17] = 30° C. ± 2° C. 65% RH ± 5% RH, 4th month
[18] = 30° C. ± 2° C. 65% RH ± 5% RH, 5th month
[19] = 30° C. ± 2° C. 65% RH ± 5% RH, 6th month
[20] = 30° C. ± 2° C. 65% RH ± 5% RH, 12th month
[21] = 30° C. ± 2° C. 65% RH ± 5% RH, 24th month
[22] = 30° C. ± 2° C. 65% RH ± 5% RH, INITIAL
[23] = 40° C. ± 2° C. 75% RH ± 5% RH, 1st month
[24] = 40° C. ± 2° C. 75% RH ± 5% RH, 2nd month
[25] = 40° C. ± 2° C. 75% RH ± 5% RH, 3rd month
[26] = 40° C. ± 2° C. 75% RH ± 5% RH, 4th month
[27] = 40° C. ± 2° C. 75% RH ± 5% RH, 5th month
[28] = 40° C. ± 2° C. 75% RH ± 5% RH, 6th month
[29] = 40° C. ± 2° C. 75% RH ± 5% RH, 12th month
[30] = 40° C. ± 2° C. 75% RH ± 5% RH, 24th month
[31] = 40° C. ± 2° C. 75% RH ± 5% RH, INITIAL

Question: With `OC[C@H]1O[C@H](O[C@]2(CCl)O[C@H](CCl)[C@@H](O)[C@@H]2O)[C@H](O)[C@@H](O)[C@H]1Cl` [Crystalline TGS small particle size, 1′-6′-Dichloro-1′-6′-DIDEOXY-β-Fructofuranasyl-4-chloro-4-deoxy-galactopyranoside] as the compound, how does the Appearance [1, 5] read?
Answer: Normal

Question: And the Assay [1, 5]?
Answer: 99.02%

Question: And the “Specific Rotation” value [1, 5]?
Answer: +85.99°

Question: And the Water content [1, 5]?
Answer: 0.73%

Question: What about the Appearance [1, 6] of the same compound?
Answer: Normal

Question: What about the Assay [1, 6] of the same compound?
Answer: 99.04%

Question: And the “Specific Rotation” value [1, 6]?
Answer: +84.63°

Question: And the Water content [1, 6]?
Answer: 0.63%

Question: And the Appearance [1, 7]?
Answer: Normal

Question: What about the Assay [1, 7] of the same compound?
Answer: 99.05%

Question: What about the “Specific Rotation” value [1, 7] of the same compound?
Answer: +85.31°

Question: What about the Water content [1, 7] of the same compound?
Answer: 0.22%

Question: What about the Appearance [1, 8] of the same compound?
Answer: Normal

Question: And the “Specific Rotation” value [1, 8]?
Answer: +84.20°

Question: What about the Water content [1, 8] of the same compound?
Answer: 0.41%

Question: What about the Appearance [1, 9] of the same compound?
Answer: Normal

Question: And the Assay [1, 9]?
Answer: 98.42%

Question: What about the “Specific Rotation” value [1, 9] of the same compound?
Answer: +87.22°

Question: What about the Water content [1, 9] of the same compound?
Answer: 0.17%

Question: What about the Appearance [1, 10] of the same compound?
Answer: Normal

Question: And the Assay [1, 10]?
Answer: 99.07%

Question: And the “Specific Rotation” value [1, 10]?
Answer: +86.78°

Question: What about the Water content [1, 10] of the same compound?
Answer: 0.23%

Question: And the Appearance [1, 11]?
Answer: Normal

Question: And the Assay [1, 11]?
Answer: 99.02%

Question: And the “Specific Rotation” value [1, 11]?
Answer: +85.93°

Question: And the Water content [1, 11]?
Answer: 0.33%

Question: And the Appearance [1, 12]?
Answer: Normal

Question: What about the Assay [1, 12] of the same compound?
Answer: 98.78%

Question: What about the “Specific Rotation” value [1, 12] of the same compound?
Answer: +84.63°

Question: What about the Water content [1, 12] of the same compound?
Answer: 0.53%

Question: What about the Appearance [1, 13] of the same compound?
Answer: Normal

Question: What about the “Specific Rotation” value [1, 13] of the same compound?
Answer: +86.07°

Question: What about the Water content [1, 13] of the same compound?
Answer: 0.52%

Question: And the Appearance [1, 14]?
Answer: Normal

Question: What about the “Specific Rotation” value [1, 14] of the same compound?
Answer: +86.01°

Question: What about the Water content [1, 14] of the same compound?
Answer: 0.69%

Question: What about the Appearance [1, 15] of the same compound?
Answer: Normal

Question: What about the “Specific Rotation” value [1, 15] of the same compound?
Answer: +85.11°

Question: And the Water content [1, 15]?
Answer: 0.19%

Question: And the Appearance [1, 16]?
Answer: Normal

Question: What about the Assay [1, 16] of the same compound?
Answer: 100.62%

Question: What about the “Specific Rotation” value [1, 16] of the same compound?
Answer: +86.29°

Question: What about the Water content [1, 16] of the same compound?
Answer: 0.28%

Question: And the Appearance [1, 17]?
Answer: Normal

Question: And the Assay [1, 17]?
Answer: 99.95%

Question: And the “Specific Rotation” value [1, 17]?
Answer: +86.67°

Question: And the Water content [1, 17]?
Answer: 0.24%

Question: What about the Appearance [1, 18] of the same compound?
Answer: Normal

Question: And the Assay [1, 18]?
Answer: 99.88%

Question: What about the “Specific Rotation” value [1, 18] of the same compound?
Answer: +87.58°

Question: What about the Water content [1, 18] of the same compound?
Answer: 0.18%

Question: And the Appearance [1, 19]?
Answer: Normal

Question: What about the Assay [1, 19] of the same compound?
Answer: 99.43%

Question: What about the “Specific Rotation” value [1, 19] of the same compound?
Answer: +84.35°

Question: And the Water content [1, 19]?
Answer: 0.42%

Question: And the Appearance [1, 20]?
Answer: Normal

Question: And the “Specific Rotation” value [1, 20]?
Answer: +85.62°

Question: And the Water content [1, 20]?
Answer: 0.66%

Question: What about the Appearance [1, 21] of the same compound?
Answer: Normal

Question: And the Assay [1, 21]?
Answer: 98.82%

Question: And the “Specific Rotation” value [1, 21]?
Answer: +86.73°

Question: And the Water content [1, 21]?
Answer: 0.70%

Question: What about the Appearance [1, 22] of the same compound?
Answer: Normal

Question: What about the “Specific Rotation” value [1, 22] of the same compound?
Answer: +86.07°

Question: And the Water content [1, 22]?
Answer: 0.52%

Question: And the Appearance [1, 23]?
Answer: Normal

Question: What about the Assay [1, 23] of the same compound?
Answer: 99.06%

Question: What about the “Specific Rotation” value [1, 23] of the same compound?
Answer: +86.01°

Question: What about the Water content [1, 23] of the same compound?
Answer: 0.73%

Question: And the Appearance [1, 24]?
Answer: Normal

Question: What about the Assay [1, 24] of the same compound?
Answer: 99.04%

Question: And the “Specific Rotation” value [1, 24]?
Answer: +86°

Question: And the Water content [1, 24]?
Answer: 1.10%

Question: And the Appearance [1, 25]?
Answer: Normal

Question: What about the “Specific Rotation” value [1, 25] of the same compound?
Answer: +85.16°

Question: And the Water content [1, 25]?
Answer: 0.27%

Question: What about the Appearance [1, 26] of the same compound?
Answer: Normal

Question: What about the “Specific Rotation” value [1, 26] of the same compound?
Answer: +85.81°

Question: What about the Water content [1, 26] of the same compound?
Answer: 0.22%

Question: What about the Appearance [1, 27] of the same compound?
Answer: Normal

Question: What about the Assay [1, 27] of the same compound?
Answer: 98.96%

Question: And the “Specific Rotation” value [1, 27]?
Answer: +85.74°

Question: And the Water content [1, 27]?
Answer: 0.20%

Question: What about the Appearance [1, 28] of the same compound?
Answer: Normal

Question: And the Assay [1, 28]?
Answer: 98.82%

Question: And the “Specific Rotation” value [1, 28]?
Answer: +82.67°

Question: And the Water content [1, 28]?
Answer: 0.49%

Question: And the Appearance [1, 29]?
Answer: Normal

Question: And the Assay [1, 29]?
Answer: 98.75%

Question: What about the “Specific Rotation” value [1, 29] of the same compound?
Answer: +86.01°

Question: And the Water content [1, 29]?
Answer: 0.73%

Question: And the Appearance [1, 30]?
Answer: Normal

Question: And the Assay [1, 30]?
Answer: 98.52%

Question: What about the “Specific Rotation” value [1, 30] of the same compound?
Answer: +86°

Question: What about the Water content [1, 30] of the same compound?
Answer: 1.10%

Question: What about the Appearance [1, 31] of the same compound?
Answer: Normal

Question: And the “Specific Rotation” value [1, 31]?
Answer: +86.07°

Question: What about the Water content [1, 31] of the same compound?
Answer: 0.52%

Question: And the stability in storage ([1]; storage, listed as crystalline TGS of this invention)?
Answer: stable in storage for one year

Question: And the Solubility [2]?
Answer: water. Slightly

Question: And the mean particle size [3]?
Answer: about 4.2 micron

Question: What about the “particle size distribution at 90%” value ([3]; listed as Example 2) of the same compound?
Answer: below 10 microns

Question: What about the “particle size distribution at 90%” value ([3]; listed as crystallized product) of the same compound?
Answer: < 10 microns

Question: What about the mean particle size ([3]; listed as Example 2) of the same compound?
Answer: 4.2 micron

Question: And the “Assay (%)” value ([4]; First day)?
Answer: 99.2%

Question: What about the PH ([4]; First day) of the same compound?
Answer: 7.90

Question: And the “Assay (%)” value ([4]; Fourth day)?
Answer: 99.12%

Question: And the PH ([4]; Fourth day)?
Answer: 7.62

Question: What about the “percent assay as well as pH” value ([4]; over the test period) of the same compound?
Answer: stable

— patent US20090208747A1, “Novel Crystalline Methods and Novel Crystalline and Amorphous forms of Halogenated Sugars” (V.B. MEDICARE PVT. LTD, priority 2006, published 2009)
